Measurements from article PMC8471380 (Molecules, 2021).

Tests used:
[1] = system: tubulin and microtubule-associated proteins (Tb+MAP); assay: GTP-dependent Tb+MAP polymerization; type: biochemical, mouse; conditions: 100 µM compound; 0.1 mM GTP, 37 °C
Source text: A crude fraction of tubulin and microtubule-associated proteins (Tb+MAP) was isolated from mouse brain tissue by a polymerization–depolymerization method. The procedure of mouse euthanasia using cervical dislocation for Tb+MAP preparation is in compliance with the Guidelines for Animal Experiments, which were approved by the local bioethics committee of the IPAC RAS. The freshly dissected brain was immediately placed on ice, cleared of meninges and surface blood vessels, and washed with cold buffer A (50 mM Tris-HCl, pH 6.9 at 4 °C, 2 mM EGTA). The extracted brain tissue was homogenized under ice cooling in the same buffer using a Potter S homogenizer (Sartorius). The resulting homogenate was centrifuged at 10,000× g for 30 min on an Avanti 25 centrifuge (Beckman) using a JA-14 rotor for the precipitation of non-ruptured cells. The precipitate was discarded, and the supernatant was again centrifuged at 100,000× g for 60 min at 4 °C on an Optima MAX XP centrifuge (Beckman) using a MLA-50 rotor. The precipitate was again discarded. The protein concentration in the supernatant was determined by the Bradford assay using the Bio-Rad Protein Assay kit (Bio-Rad, Hercules, CA, USA) according to manufacturer’s instructions. The resulting supernatant was a cytosolic fraction enriched in microtubular proteins (Tb and MAP).
The Tb+MAP preparation was centrifuged at 5000× g for 10 min at 4 °C immediately before polymerization in order to remove denatured and aggregated protein molecules by precipitation. The Tb+MAP polymerization was performed at 37 °C in buffer A in the presence of 0.1 mM GTP after addition of 100 µM of test compound or the same volume of vehicle (DMSO). The protein concentration in the sample was 0.2 mg/mL. The polymerization kinetics was monitored on a Victor 3 or EnVision microplate reader (Perkin Elmer, USA) at 355 nm and the stabilized rate of polymerization after the first wave was measured (dA355/dt).

PAS of EeAChE = biological target: T1, PAS of EeAChE (Electrophorus electricus, UniProt O42275); type: binding; conditions: 20 µM compound; 7 µM EeAChE, 8 µM propidium iodide; mean ± SEM, n = 3
T1 construct: AChE from Electrophorus electricus (EeAChE, type VI-S, lyophilized powder); purchased Sigma-Aldrich type VI-S; host or cells: Electrophorus electricus tissue
Protocol: The compounds were evaluated as potential inhibitors of proaggregation activity of AChE by measuring the displacement of propidium iodide from the PAS of the enzyme [53] using a fluorescence method [28]. AChE from Electrophorus electricus (EeAChE, type VI-S, lyophilized powder, Sigma-Aldrich, St. Louis, MO, USA) was used for consistency with our previous studies [8, 13, 63, 74]. The fluorescence intensity of propidium iodide bound to AChE increases several-fold. A decrease in the fluorescence intensity in the presence of the test compounds is indicative of their ability to bind to the AChE PAS and, correspondingly, to inhibit β-amyloid aggregation.
EeAChE (7 µM) was incubated with 20 µM of the test compound in 1 mM Tris-HCl buffer, pH 8.0, at 25 °C for 15 min. Then a solution of propidium iodide was added (final concentration 8 µM), the mixture was incubated for 15 min, and the fluorescence spectrum was recorded (excitation at 530 nm and emission at 600 nm). […] The blank contained propidium iodide at the same concentration in 1 mM Tris-HCl buffer, pH 8.0 at 25 °C. The measurements were performed in triplicate on a FLUOstar OPTIMA multifunctional microplate reader.
The degree of displacement of propidium iodide from the PAS of AChE (% displacement) was calculated by the equation:% displacement = 100 − (IFAChE + Propidium + inhibitor/IFAChE + Propidium) × 100, where IFAChE + Propidium is the fluorescence intensity of propidium iodide bound to EeAChE in the absence of the test compound (taken as 100%), and IFAChE + Propidium + inhibitor is the fluorescence intensity of propidium iodide bound to EeAChE in the presence of the test compound.

[2] = biological target: T2, MK-801-binding (intrachannel) site of NMDA receptor (Rattus norvegicus, UniProt P35439); assay: Radioligand binding assay, [3H]MK-801 displacement
T2 construct: from tissue; host or cells: rat hippocampus membranes
Protocol: (§3) The effect of the test compounds on radioligand binding to NMDA receptors was evaluated by a modified method, as previously reported [83]. The following two radioligands were used: [^3H] […] A hippocampal membrane preparation for the radioligand binding assay was made as described previously [86, 87]. The obtained membrane pellet was resuspended in a working buffer (5 mM HEPES/4.5 mM Tris, pH 7.6 at 4 °C) in a ratio of 1:5 and stored in liquid nitrogen. The reaction mixture (the final volume was 0.5 mL) contained the working buffer (200 μL), a 50 nM radioligand solution (50 μL) and the membrane suspension (250 μL). The nonspecific binding was evaluated in the presence of 1 mM of the unlabeled ligand (50 μL).
(§4) For the binding assay, the reaction mixture was incubated at room temperature for 2 h. After the incubation, the samples were filtered through GF/B glass fiber filters (Whatman), washed with the working buffer, dried and transferred to scintillation vials. Then the scintillation fluid (5 mL), which is composed of diphenyloxazole (PPO) (4 g) and bis(5-phenyl-2-oxazolyl)benzene (POPOP) (0.2 g) in toluene (1 L) were added to the vials.
(§5) The effect of the test compounds on the binding of [^3H] […] The values of Ki were calculated according to a previously described method [88].

human erythrocyte AChE [3] = biological target: T3, human erythrocyte AChE (Homo sapiens, UniProt P22303); assay: Kinetic study of AChE inhibition (Lineweaver-Burk); type: biochemical
T3 construct: commercial human erythrocyte AChE; purchased Sigma; host or cells: human erythrocytes
Protocol: (§1) Kinetic studies were performed using commercial human erythrocyte AChE, equine serum BChE and porcine liver CES (Sigma, USA). The AChE and BChE activity was evaluated by Ellman’s method (λ = 412 nm) using 1 mM acetylthiocholine and 1 mM butyrylthiocholine (Sigma, St. Louis, MO, USA), respectively, as the substrate in 100 mM phosphate buffer, pH 7.5, 0.33 mM DTNB, 0.02 unit/mL of AChE or BChE at 25 °C as described in detail in [71]. Reagents blanks consisted of reaction mixtures without substrates. The CES activity was measured spectrophotometrically based on the release of 4-nitrophenol (λ = 405 nm) in the presence of 1 mM 4-nitrophenyl acetate as the substrate in 100 mM phosphate buffer, pH 8.0, at 25 °C as described in [71]. Final enzyme and substrate concentrations were 0.02 unit/mL and 1 mM, respectively. Assays were carried out with a blank containing all constituents except porcine CES to assess non-enzymatic hydrolysis. The measurements were performed on a FLUOstar OPTIMA multifunctional microplate reader (BMG LABTECH, Ortenberg, Germany). The compounds were dissolved in DMSO. The incubation mixture contained 2% (v/v) of the solvent. […] The sample of the appropriate enzyme was incubated with the test compound for 5 min, and then the residual enzymatic activity was determined. Each experiment was performed in triplicate. […]. […] Each experiment was performed in triplicate. The IC50 values were calculated with Origin 6.1 software.
(§2) The mechanisms of AChE and BChE inhibition were assessed by a thorough analysis of enzyme kinetics. The residual activity was determined after a 5-min incubation at 25 °C (for temperature equilibration) with three increasing concentrations of the inhibitor and six decreasing substrate concentrations.

human erythrocyte AChE [4] = biological target: T3, human erythrocyte AChE; assay: biochemical; conditions: mean ± SEM, n = 3; for IC50: 5 min incubation; for inhibition at 20 µM: read-out: % of inhibition of AChE with 20 µM concentration of the compound, 20 µM compound
equine serum BChE [5] = biological target: T4, equine serum BChE (Equus caballus, UniProt P81908); assay: Kinetic study of BChE inhibition (Lineweaver-Burk); type: biochemical
T4 construct: equine serum BChE; purchased Sigma; host or cells: equine serum
Protocol: as §1, §2

equine serum BChE [6] = biological target: T4, equine serum BChE; assay: biochemical; conditions: 5 min incubation; mean ± SEM, n = 3
Protocol: (§6) Reagents blanks consisted of reaction mixtures without substrates. […] Final enzyme and substrate concentrations were 0.02 unit/mL and 1 mM, respectively. Assays were carried out with a blank containing all constituents except porcine CES to assess non-enzymatic hydrolysis. The measurements were performed on a FLUOstar OPTIMA multifunctional microplate reader (BMG LABTECH, Ortenberg, Germany). The compounds were dissolved in DMSO. The incubation mixture contained 2% (v/v) of the solvent. […] The sample of the appropriate enzyme was incubated with the test compound for 5 min, and then the residual enzymatic activity was determined. Each experiment was performed in triplicate. […] Each experiment was performed in triplicate. The IC50 values were calculated with Origin 6.1 software.

[7] = system: isolated rat liver mitochondria; assay: Ca2+-induced mitochondrial swelling (MPT pore opening); type: biochemical; conditions: 30 µM compound; 12.5 µM Ca2+; 10 mM glutamate, 2 mM malate, 10 mM succinate; percentage relative to the reference compound
Protocol: Experiments were performed using outbred male rats weighing 200–220 g. The animals were housed under standard vivarium conditions in a normal day/night cycle and had ad libitum access to water and food. The procedure of rat euthanasia using carbon dioxide (CO2) inhalation for mitochondria preparation is in compliance with the Guidelines for Animal Experiments, which were approved by the local bioethics committee of the IPAC RAS.
Rat liver mitochondria were isolated by conventional differential centrifugation. Membrane potential of rat liver mitochondria was measured using the potential-sensitive fluorescent probe Safranine A on a Victor 3 multilabel plate reader (Perkin Elmer, Waltham, MA, USA). The fluorescence was recorded at λex = 485 nm and λem = 590 nm. Mitochondrial swelling was measured by spectrophotometry in 96-well clear bottom plates on a Victor 3 microplate reader (Perkin Elmer, Waltham, MA, USA) at 620 nm; CaCl2 was added to induce mitochondrial swelling (MPT opening).

[8] = biological target: T5, ifenprodil-binding site of NMDA receptor (NR2B subunit) (Rattus norvegicus, UniProt P35439+Q00960); assay: Radioligand binding assay, [3H]ifenprodil displacement
T5 construct: from tissue; host or cells: rat hippocampus membranes
Protocol: as §3, §4, §5

porcine liver CES = biological target: T6, porcine liver CES (Sus scrofa, UniProt Q29550); assay: CES inhibition, 4-nitrophenyl acetate hydrolysis; type: biochemical; conditions: read-out: % of inhibition of CES with 20 µM concentration of the compound
T6 sequence (Q29550 19-566): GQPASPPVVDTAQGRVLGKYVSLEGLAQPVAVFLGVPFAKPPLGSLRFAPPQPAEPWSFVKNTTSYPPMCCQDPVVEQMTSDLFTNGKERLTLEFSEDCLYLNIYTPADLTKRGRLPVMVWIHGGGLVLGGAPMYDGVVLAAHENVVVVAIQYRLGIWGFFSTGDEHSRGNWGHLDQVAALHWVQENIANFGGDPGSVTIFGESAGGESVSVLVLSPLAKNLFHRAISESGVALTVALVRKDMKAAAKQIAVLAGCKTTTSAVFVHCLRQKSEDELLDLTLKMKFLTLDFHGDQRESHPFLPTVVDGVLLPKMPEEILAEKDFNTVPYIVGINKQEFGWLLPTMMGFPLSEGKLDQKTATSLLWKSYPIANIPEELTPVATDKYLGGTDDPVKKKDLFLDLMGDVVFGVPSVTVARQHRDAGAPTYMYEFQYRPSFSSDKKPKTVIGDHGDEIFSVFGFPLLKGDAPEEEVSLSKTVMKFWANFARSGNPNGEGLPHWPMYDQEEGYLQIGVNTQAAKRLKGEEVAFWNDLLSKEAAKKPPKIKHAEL
Protocol: as §6

[9] = Lineweaver-Burk double-reciprocal plots

T3 sequence (P22303 32-617 isoform P22303-2 limits assumed): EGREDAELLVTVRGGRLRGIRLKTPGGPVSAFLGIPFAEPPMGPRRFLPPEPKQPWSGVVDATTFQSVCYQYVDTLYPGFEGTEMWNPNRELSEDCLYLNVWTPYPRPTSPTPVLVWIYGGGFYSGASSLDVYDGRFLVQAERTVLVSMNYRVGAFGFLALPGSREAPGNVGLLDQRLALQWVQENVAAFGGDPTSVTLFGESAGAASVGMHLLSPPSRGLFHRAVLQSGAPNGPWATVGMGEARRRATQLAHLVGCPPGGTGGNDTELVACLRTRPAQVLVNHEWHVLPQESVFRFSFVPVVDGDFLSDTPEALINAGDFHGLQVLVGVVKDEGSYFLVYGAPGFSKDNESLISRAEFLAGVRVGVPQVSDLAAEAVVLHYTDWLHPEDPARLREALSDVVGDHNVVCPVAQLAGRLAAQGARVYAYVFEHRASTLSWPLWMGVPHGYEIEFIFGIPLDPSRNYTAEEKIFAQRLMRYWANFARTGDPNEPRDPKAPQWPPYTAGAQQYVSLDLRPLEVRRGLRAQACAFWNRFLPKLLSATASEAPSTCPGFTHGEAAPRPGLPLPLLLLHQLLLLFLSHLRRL
T5 sequence (Q00960 27-1482, other chains not shown): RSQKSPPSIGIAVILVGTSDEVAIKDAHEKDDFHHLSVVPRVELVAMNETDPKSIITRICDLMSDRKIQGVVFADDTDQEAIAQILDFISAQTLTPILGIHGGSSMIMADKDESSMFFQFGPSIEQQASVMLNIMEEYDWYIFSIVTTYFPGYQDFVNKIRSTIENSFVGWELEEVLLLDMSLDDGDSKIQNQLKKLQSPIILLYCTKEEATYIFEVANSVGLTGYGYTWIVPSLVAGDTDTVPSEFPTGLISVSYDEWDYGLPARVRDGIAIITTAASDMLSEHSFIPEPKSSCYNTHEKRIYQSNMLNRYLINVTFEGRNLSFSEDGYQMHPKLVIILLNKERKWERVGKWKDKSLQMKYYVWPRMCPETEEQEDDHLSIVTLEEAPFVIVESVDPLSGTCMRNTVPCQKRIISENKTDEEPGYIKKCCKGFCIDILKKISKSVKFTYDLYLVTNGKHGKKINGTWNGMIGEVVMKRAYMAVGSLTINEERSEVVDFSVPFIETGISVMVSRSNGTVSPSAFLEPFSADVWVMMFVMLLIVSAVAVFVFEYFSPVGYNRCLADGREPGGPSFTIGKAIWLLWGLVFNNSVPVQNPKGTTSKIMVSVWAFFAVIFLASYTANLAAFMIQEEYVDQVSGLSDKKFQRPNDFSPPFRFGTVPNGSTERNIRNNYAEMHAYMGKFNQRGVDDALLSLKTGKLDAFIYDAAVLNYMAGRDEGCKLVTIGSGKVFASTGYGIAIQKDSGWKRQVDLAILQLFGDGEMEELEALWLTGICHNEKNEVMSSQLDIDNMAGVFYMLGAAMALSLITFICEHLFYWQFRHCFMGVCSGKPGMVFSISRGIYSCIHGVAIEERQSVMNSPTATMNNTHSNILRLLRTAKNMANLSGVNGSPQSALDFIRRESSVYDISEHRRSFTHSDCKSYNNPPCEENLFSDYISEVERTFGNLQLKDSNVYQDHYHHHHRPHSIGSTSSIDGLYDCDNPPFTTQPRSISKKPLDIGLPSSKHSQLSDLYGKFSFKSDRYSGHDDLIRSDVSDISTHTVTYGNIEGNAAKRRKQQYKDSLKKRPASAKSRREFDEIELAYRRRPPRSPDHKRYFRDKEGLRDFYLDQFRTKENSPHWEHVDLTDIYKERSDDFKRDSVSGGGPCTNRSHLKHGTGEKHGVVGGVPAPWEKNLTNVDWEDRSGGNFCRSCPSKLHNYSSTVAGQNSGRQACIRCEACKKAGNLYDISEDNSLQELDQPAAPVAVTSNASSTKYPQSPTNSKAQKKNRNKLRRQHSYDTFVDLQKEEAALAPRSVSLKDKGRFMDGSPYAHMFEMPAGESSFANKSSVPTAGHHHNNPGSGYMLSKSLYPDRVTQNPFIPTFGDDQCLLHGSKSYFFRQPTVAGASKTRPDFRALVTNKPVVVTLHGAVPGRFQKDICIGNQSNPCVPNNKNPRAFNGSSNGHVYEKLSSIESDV
T4 sequence (P81908 whole entry): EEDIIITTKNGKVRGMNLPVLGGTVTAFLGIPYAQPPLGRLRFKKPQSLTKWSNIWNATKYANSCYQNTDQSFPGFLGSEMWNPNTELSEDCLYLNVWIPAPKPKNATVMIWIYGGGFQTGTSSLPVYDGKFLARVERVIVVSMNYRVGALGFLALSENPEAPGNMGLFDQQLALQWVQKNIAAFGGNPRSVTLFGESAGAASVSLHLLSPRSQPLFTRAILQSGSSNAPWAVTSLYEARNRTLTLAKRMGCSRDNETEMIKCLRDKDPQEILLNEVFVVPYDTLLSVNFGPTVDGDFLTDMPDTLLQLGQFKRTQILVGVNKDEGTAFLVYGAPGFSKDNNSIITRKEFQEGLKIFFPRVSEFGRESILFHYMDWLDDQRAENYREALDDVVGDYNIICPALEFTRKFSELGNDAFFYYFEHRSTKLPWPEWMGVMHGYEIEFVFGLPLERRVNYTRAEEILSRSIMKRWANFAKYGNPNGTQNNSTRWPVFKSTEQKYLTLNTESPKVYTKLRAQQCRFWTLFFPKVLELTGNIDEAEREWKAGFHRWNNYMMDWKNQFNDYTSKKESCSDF
T1 sequence (O42275 24-633): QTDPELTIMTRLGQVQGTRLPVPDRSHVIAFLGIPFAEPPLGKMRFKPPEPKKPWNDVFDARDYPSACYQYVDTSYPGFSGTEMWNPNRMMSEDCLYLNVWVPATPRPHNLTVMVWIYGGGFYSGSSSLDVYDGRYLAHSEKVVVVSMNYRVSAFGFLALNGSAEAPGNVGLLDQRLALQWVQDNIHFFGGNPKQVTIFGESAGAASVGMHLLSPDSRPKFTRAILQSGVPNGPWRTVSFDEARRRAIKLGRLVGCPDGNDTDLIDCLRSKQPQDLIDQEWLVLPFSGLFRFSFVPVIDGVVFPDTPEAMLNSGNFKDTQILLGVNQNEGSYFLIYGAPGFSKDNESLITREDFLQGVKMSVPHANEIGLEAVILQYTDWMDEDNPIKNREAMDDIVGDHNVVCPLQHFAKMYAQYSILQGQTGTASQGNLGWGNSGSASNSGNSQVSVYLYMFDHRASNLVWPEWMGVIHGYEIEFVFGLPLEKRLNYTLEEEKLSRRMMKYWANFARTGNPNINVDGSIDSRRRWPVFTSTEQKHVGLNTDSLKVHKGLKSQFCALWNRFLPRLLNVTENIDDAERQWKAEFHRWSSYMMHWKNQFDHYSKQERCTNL

Structure (SMILES) | Rate of Tb+MAP Polymerization (dA355/dt) [1] | % of Displacement of Propidium Iodide from the PAS of EeAChE (PAS of EeAChE) | Ki [2] | αKi (non-competitive component), AChE (human erythrocyte AChE [3]; Lineweaver-Burk analysis) | Ki (human erythrocyte AChE [3]; Lineweaver-Burk analysis, read-out: Ki (competitive component), AChE) | Type of AChE inhibition (human erythrocyte AChE [3]; [9]) | IC50 (human erythrocyte AChE [4]) | αKi (non-competitive component), BChE (equine serum BChE [5]; Lineweaver-Burk analysis) | Ki (equine serum BChE [5]; Lineweaver-Burk analysis, read-out: Ki (competitive component), BChE) | Type of BChE inhibition (equine serum BChE [5]; [9]) | IC50 (equine serum BChE [6]) | Rate of Ca2+-Induced Mitochondrial Swelling (dA620/dt) [7] | Ki [8] | inhibition at 20 µM (porcine liver CES) | inhibition at 20 µM (human erythrocyte AChE [4])
CN1CCc2c(c3cc(F)ccc3n2CCNC23CC4CC(C)(CC(C)(C4)C2)C3)C1.Cl.Cl [Compound 4c, N-(2-(8-Fluoro-2-methyl-3,4-dihydro-1H-pyrido[4,3-b]indol-5(2H)-yl)ethyl)-3,5-dimethyladamantane-1-amine dihydrochloride] | 166 ± 11% | 13.1 ± 1.0% | 4.7 ± 0.5 µM | 45.5 ± 3.8 µM | 13.7 ± 0.02 µM | mixed type of inhibition | 39.7 ± 3.2 µM | 0.70 ± 0.01 µM | 0.23 ± 0.02 µM | mixed type of inhibition | 0.729 ± 0.011 µM | 31 ± 10% | 3.1 ± 0.3 µM | 6.9 ± 0.4% | –
Cc1ccc2c(c1)c1c(n2CC(=O)NC23CC4CC(CC(C4)C2)C3)CCN(C)C1.Cl [Compound 8e, N-(Adamantan-1-yl)-2-(2,8-dimethyl-3,4-dihydro-1H-pyrido[4,3-b]indol-5(2H)-yl)acetamide hydrochloride] | 133 ± 28% | 1.2 ± 0.1% | 72.7 ± 6.6 µM | – | – | – | – | – | – | – | 43.2 ± 2.9 µM | 49 ± 12% | 105 ± 10 µM | 9.9 ± 1.5% | 13.5 ± 0.9%
Cc1ccc2c(c1)c1c(n2CCNC23CC4CC(C)(CC(C)(C4)C2)C3)CCN(C)C1.Cl.Cl [Compound 4b, N-(2-(2,8-Dimethyl-3,4-dihydro-1H-pyrido[4,3-b]indol-5(2H)-yl)ethyl)-3,5-dimethyladamantane-1-amine dihydrochloride] | 153 ± 33% | 14.7 ± 0.9% | 7.9 ± 0.8 µM | – | – | – | 50.3 ± 3.4 µM | – | – | – | 5.07 ± 0.09 µM | 39 ± 7% | 8.8 ± 1 µM | 10.4 ± 0.5% | –
Cc1ccc2c(c1)c1c(n2CCNC23CC4CC(CC(C4)C2)C3)CCN(C)C1.Cl.Cl [Compound 4e, N-(2-(2,8-Dimethyl-3,4-dihydro-1H-pyrido[4,3-b]indol-5(2H)-yl)ethyl)adamantane-1-amine dihydrochloride] | 239 ± 21% | 15.1 ± 1.2% | 10.3 ± 1.6 µM | – | – | – | 63.3 ± 3.3 µM | – | – | – | 9.05 ± 0.8 µM | 42 ± 9% | 8.2 ± 0.9 µM | 2.5 ± 0.5% | –
CN1CCc2c(c3ccccc3n2CCNC23CC4CC(C)(CC(C)(C4)C2)C3)C1.Cl.Cl [Compound 4a, 3,5-Dimethyl-N-(2-(2-methyl-3,4-dihydro-1H-pyrido[4,3-b]indol-5(2H)-yl)ethyl)-adamantane-1-amine dihydrochloride] | 126 ± 9% | 12.5 ± 1.1% | 1.9 ± 0.2 µM | – | – | – | – | – | – | – | 0.666 ± 0.037 µM | 33 ± 4% | 1.7 ± 0.2 µM | 15.6 ± 0.3% | 19.5 ± 0.3%
CN1CCc2c(c3ccccc3n2CCNC23CC4CC(CC(C4)C2)C3)C1.Cl.Cl [Compound 4d, N-(2-(2-Methyl-3,4-dihydro-1H-pyrido[4,3-b]indol-5(2H)-yl)ethyl)adamantane-1-amine dihydrochloride] | 162 ± 19% | 10.1 ± 0.9% | 3.3 ± 0.3 µM | – | – | – | 112 ± 5 µM | – | – | – | 2.48 ± 0.22 µM | 35 ± 13% | 4.4 ± 0.3 µM | 2.9 ± 0.8% | –
